Tests used:
HS 578T = assay: NCI screen, growth of human tumor cells: Breast Cancer HS 578T; assay type: cell-based; conditions: HS 578T (Breast Cancer), 10^−4 molar
Procedure, shortened: (§1)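 The NCI screen tests each compound on human cancer cell lines and reports percent growth. Concentrations are given in molar units; the number of data points per compound is sixty at minimum.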

AS49/ATCC = assay: NCI screen, growth of human tumor cells: Non-Small Cell Lung AS49/ATCC; assay type: cell-based; conditions: AS49/ATCC (Non-Small Cell Lung), 10^−4 molar
Procedure, shortened: as §1

OVCAR-4 = assay: NCI screen, growth of human tumor cells: Ovarian Cancer OVCAR-4; assay type: cell-based; conditions: OVCAR-4 (Ovarian Cancer), 10^−4 molar
Procedure, shortened: as §1

RXF-393 = assay: NCI screen, growth of human tumor cells: Renal Cancer RXF-393; assay type: cell-based; conditions: RXF-393 (Renal Cancer), 10^−4 molar
Procedure, shortened: as §1

HOP-62 = assay: NCI screen, growth of human tumor cells: Non-Small Cell Lung HOP-62; assay type: cell-based; conditions: HOP-62 (Non-Small Cell Lung), 10^−4 molar
Procedure, shortened: as §1

HL-60 (TB) = assay: NCI screen, growth of human tumor cells: Leukemia HL-60 (TB); assay type: cell-based; conditions: HL-60 (TB) (Leukemia), 10^−4 molar
Protocol: (§2) In the NCI screening process, each compound was tested and described by a minimum of 60 data points. The test data include, but are not limited to the type of cancer, the molar concentration used in the screen, and the percent growth of the cancer. In some cases, NMR and elemental analysis were used for structural assignment.

K562 = assay: NCI screen, growth of human tumor cells: Leukemia K562; assay type: cell-based; conditions: K562 (Leukemia), 10^−4 molar
Procedure, shortened: as §1

NCI-H460 = assay: NCI screen, growth of human tumor cells: Non-Small Cell Lung NCI-H460; assay type: cell-based
Procedure, shortened: as §1

CCRF-CEM = assay: NCI screen, growth of human tumor cells: Leukemia CCRF-CEM; assay type: cell-based; conditions: CCRF-CEM (Leukemia), 10^−4 molar
Procedure, shortened: as §1

SK-MEL-5 = assay: NCI screen, growth of human tumor cells: Melanoma SK-MEL-5; assay type: cell-based; conditions: SK-MEL-5 (Melanoma), 10^−4 molar
Procedure, shortened: as §1

HCT-15 = assay: NCI screen, growth of human tumor cells: Colon Cancer HCT-15; assay type: cell-based; conditions: HCT-15 (Colon Cancer), 10^−4 molar
Procedure, shortened: as §1

IGROVI = assay: NCI screen, growth of human tumor cells: Ovarian Cancer IGROVI; assay type: cell-based; conditions: IGROVI (Ovarian Cancer), 10^−4 molar
Procedure, shortened: as §1

SN12C = assay: NCI screen, growth of human tumor cells: Renal Cancer SN12C; assay type: cell-based; conditions: SN12C (Renal Cancer), 10^−4 molar
Procedure, shortened: as §1

CAKI-1 = assay: NCI screen, growth of human tumor cells: Renal Cancer CAKI-1; assay type: cell-based; conditions: CAKI-1 (Renal Cancer), 10^−4 molar
Procedure, shortened: as §1

ACHN = assay: NCI screen, growth of human tumor cells: Renal Cancer ACHN; assay type: cell-based; conditions: ACHN (Renal Cancer), 10^−4 molar
Procedure, shortened: as §1

HCT-116 = assay: NCI screen, growth of human tumor cells: Colon Cancer HCT-116; assay type: cell-based; conditions: HCT-116 (Colon Cancer), 10^−4 molar
Procedure, shortened: as §1

UACC-62 = assay: NCI screen, growth of human tumor cells: Melanoma UACC-62; assay type: cell-based; conditions: UACC-62 (Melanoma), 10^−4 molar
Procedure, shortened: as §1

SF-539 = assay: NCI screen, growth of human tumor cells: CNS Cancer SF-539; assay type: cell-based; conditions: SF-539 (CNS Cancer), 10^−4 molar
Procedure, shortened: as §1

SNB-75 = assay: NCI screen, growth of human tumor cells: CNS Cancer SNB-75; assay type: cell-based
Procedure, shortened: as §1

human cancer cells = assay: NCI screen summary over the cancers tested (negative growth of human cancer cells); assay type: cell-based; conditions: 10^−4 M conc.; cancers with negative growth / cancers tested
Protocol: as §2
The derivatives in the tables are grouped using the same category as in the tables 1-6.

MDA-N = assay: NCI screen, growth of human tumor cells: Breast Cancer MDA-N; assay type: cell-based; conditions: 10^−4 molar
Protocol: as §2

OVCAR-3 = assay: NCI screen, growth of human tumor cells: Ovarian Cancer OVCAR-3; assay type: cell-based; conditions: OVCAR-3 (Ovarian Cancer), 10^−4 molar
Procedure, shortened: as §1

HT29 = assay: NCI screen, growth of human tumor cells: Colon Cancer HT29; assay type: cell-based; conditions: HT29 (Colon Cancer), 10^−4 molar
Procedure, shortened: as §1

UACC-257 = assay: NCI screen, growth of human tumor cells: Melanoma UACC-257; assay type: cell-based; conditions: UACC-257 (Melanoma), 10^−4 molar
Procedure, shortened: as §1

SF-268 = assay: NCI screen, growth of human tumor cells: CNS Cancer SF-268; assay type: cell-based; conditions: SF-268 (CNS Cancer), 10^−4 molar
Procedure, shortened: as §1

KM12 = assay: NCI screen, growth of human tumor cells: Colon Cancer KM12; assay type: cell-based; conditions: KM12 (Colon Cancer), 10^−4 molar
Procedure, shortened: as §1

OVCAR-8 = assay: NCI screen, growth of human tumor cells: Ovarian Cancer OVCAR-8; assay type: cell-based; conditions: OVCAR-8 (Ovarian Cancer), 10^−4 molar
Procedure, shortened: as §1

SF-295 = assay: NCI screen, growth of human tumor cells: CNS Cancer SF-295; assay type: cell-based; conditions: SF-295 (CNS Cancer), 10^−4 molar
Procedure, shortened: as §1

786-0 = assay: NCI screen, growth of human tumor cells: Renal Cancer 786-0; assay type: cell-based; conditions: 786-0 (Renal Cancer), 10^−4 molar
Procedure, shortened: as §1

UO-31 = assay: NCI screen, growth of human tumor cells: Renal Cancer UO-31; assay type: cell-based; conditions: UO-31 (Renal Cancer), 10^−4 molar
Procedure, shortened: as §1

RPMI-8226 = assay: NCI screen, growth of human tumor cells: Leukemia RPMI-8226; assay type: cell-based; conditions: RPMI-8226 (Leukemia), 10^−4 molar
Procedure, shortened: as §1

SK-OV-3 = assay: NCI screen, growth of human tumor cells: Ovarian Cancer SK-OV-3; assay type: cell-based; conditions: SK-OV-3 (Ovarian Cancer), 10^−4 molar
Procedure, shortened: as §1

LOXIMVI = assay: NCI screen, growth of human tumor cells: Melanoma LOXIMVI; assay type: cell-based; conditions: LOXIMVI (Melanoma), 10^−4 molar
Procedure, shortened: as §1

MCF7/ADR-RES = assay: NCI screen, growth of human tumor cells: Breast Cancer MCF7/ADR-RES; assay type: cell-based; conditions: MCF7/ADR-RES (Breast Cancer), 10^−4 molar
Procedure, shortened: as §1

M14 = assay: NCI screen, growth of human tumor cells: Melanoma M14; assay type: cell-based; conditions: M14 (Melanoma), 10^−4 molar
Procedure, shortened: as §1

MCF 7 = assay: NCI screen, growth of human tumor cells: Breast Cancer MCF 7; assay type: cell-based; conditions: MCF 7 (Breast Cancer), 10^−4 molar
Procedure, shortened: as §1

NCI-H522 = assay: NCI screen, growth of human tumor cells: Non-Small Cell Lung NCI-H522; assay type: cell-based; conditions: NCI-H522 (Non-Small Cell Lung), 10^−4 molar
Procedure, shortened: as §1

MOLT-4 = assay: NCI screen, growth of human tumor cells: Leukemia MOLT-4; assay type: cell-based; conditions: MOLT-4 (Leukemia), 10^−4 molar
Procedure, shortened: as §1

DU-145 = assay: NCI screen, growth of human tumor cells: Prostate Cancer DU-145; assay type: cell-based; conditions: DU-145 (Prostate Cancer), 10^−4 molar
Procedure, shortened: as §1

## O=S1(=O)OCCOS(=O)(=O)C1C1c2ccccc2-c2ccccc21 [NSC 686562, ethylene 9-fluorenylmethanedisulfonate]
HS 578T
  percent of growth of human tumor cells: 24%
AS49/ATCC
  percent of growth of human tumor cells: 30%
OVCAR-4
  percent of growth of human tumor cells: −39%
RXF-393
  percent of growth of human tumor cells: 25%
HOP-62
  percent of growth of human tumor cells: 5%
HL-60 (TB)
  percent of growth of human tumor cells: −20%
K562
  percent of growth of human tumor cells: 16%
NCI-H460; NCI-H460, 10^−4 molar
  % Growth: −50%
NCI-H460; NCI-H460, 10^−5 molar
  % Growth: 56%
CCRF-CEM
  percent of growth of human tumor cells: −3%
SK-MEL-5
  percent of growth of human tumor cells: 4%
HCT-15
  percent of growth of human tumor cells: 15%
IGROVI
  percent of growth of human tumor cells: 16%
SN12C
  percent of growth of human tumor cells: 28%
other
  melting point: 118 to 124 °C
CAKI-1
  percent of growth of human tumor cells: −1%
ACHN
  percent of growth of human tumor cells: 9%
HCT-116
  percent of growth of human tumor cells: 0%
UACC-62
  percent of growth of human tumor cells: 10%
SF-539
  percent of growth of human tumor cells: 10%
SNB-75; SNB-75, 10^−4 molar
  % Growth: −28%
SNB-75; SNB-75, 10^−5 molar
  % Growth: 28%
SNB-75; SNB-75, 10^−6 molar
  % Growth: 64%
Human cancer cells
  Percentage of cancers showing negative growth cancers tested: 10^−4 M conc. = 11/38 = 29%
MDA-N
  percent of growth of human tumor cells: 17%
OVCAR-3
  percent of growth of human tumor cells: 25%
HT29
  percent of growth of human tumor cells: 26%
UACC-257
  percent of growth of human tumor cells: 28%
SF-268
  percent of growth of human tumor cells: 29%
KM12
  percent of growth of human tumor cells: 22%
OVCAR-8
  percent of growth of human tumor cells: 29%
SF-295
  percent of growth of human tumor cells: 22%
786-0
  percent of growth of human tumor cells: 2%
UO-31
  percent of growth of human tumor cells: −3%
RPMI-8226
  percent of growth of human tumor cells: 9%
SK-OV-3
  percent of growth of human tumor cells: 25%
LOXIMVI
  percent of growth of human tumor cells: −27%
MCF7/ADR-RES
  percent of growth of human tumor cells: −7%
M14
  percent of growth of human tumor cells: 23%
MCF 7
  percent of growth of human tumor cells: 23%
NCI-H522
  percent of growth of human tumor cells: −19%
MOLT-4
  percent of growth of human tumor cells: −32%
DU-145
  percent of growth of human tumor cells: 9%
